Values of other authors in US9186326B2 (Kimia Zist Parsian (KZP), priority 2014, dated 2015).

Tested on: glucocorticoid effect

Dexamethasone
mineral corticoid effect: minimal mineral corticoid effect | potency relative to cortisol in glucocorticoid effect (versus cortisol): twenty five
